Key:
Adenosine receptor A3 = biological target: T1, Adenosine receptor A3 (Homo sapiens, UniProt P0DMS8)
T1 sequence (P0DMS8 whole entry): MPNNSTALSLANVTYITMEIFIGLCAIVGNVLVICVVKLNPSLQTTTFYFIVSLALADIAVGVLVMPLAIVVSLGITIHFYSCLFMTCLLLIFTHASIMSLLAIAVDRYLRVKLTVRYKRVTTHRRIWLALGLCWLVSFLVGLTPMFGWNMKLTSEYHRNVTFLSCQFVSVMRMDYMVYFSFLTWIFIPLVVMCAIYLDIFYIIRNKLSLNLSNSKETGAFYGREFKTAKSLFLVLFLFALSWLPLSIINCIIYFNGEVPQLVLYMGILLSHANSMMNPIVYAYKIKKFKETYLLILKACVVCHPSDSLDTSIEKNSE

[1] = biological target: T2, Type-1 angiotensin II receptor (Homo sapiens, UniProt P30556)
T2 sequence (P30556 whole entry): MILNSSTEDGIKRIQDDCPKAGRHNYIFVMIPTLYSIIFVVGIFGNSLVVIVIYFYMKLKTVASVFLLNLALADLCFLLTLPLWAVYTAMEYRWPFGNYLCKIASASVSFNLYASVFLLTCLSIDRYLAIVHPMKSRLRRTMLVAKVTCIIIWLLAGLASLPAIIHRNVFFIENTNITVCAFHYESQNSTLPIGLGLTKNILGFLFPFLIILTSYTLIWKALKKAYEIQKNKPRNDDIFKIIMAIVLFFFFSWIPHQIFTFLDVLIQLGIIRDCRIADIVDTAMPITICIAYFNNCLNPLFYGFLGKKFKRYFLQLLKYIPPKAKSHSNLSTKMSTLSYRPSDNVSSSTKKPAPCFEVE

Vasopressin V1a receptor = Vasopressin V1a receptor (Homo sapiens, UniProt P37288)
Vasopressin V1a receptor, sequence (P37288 whole entry): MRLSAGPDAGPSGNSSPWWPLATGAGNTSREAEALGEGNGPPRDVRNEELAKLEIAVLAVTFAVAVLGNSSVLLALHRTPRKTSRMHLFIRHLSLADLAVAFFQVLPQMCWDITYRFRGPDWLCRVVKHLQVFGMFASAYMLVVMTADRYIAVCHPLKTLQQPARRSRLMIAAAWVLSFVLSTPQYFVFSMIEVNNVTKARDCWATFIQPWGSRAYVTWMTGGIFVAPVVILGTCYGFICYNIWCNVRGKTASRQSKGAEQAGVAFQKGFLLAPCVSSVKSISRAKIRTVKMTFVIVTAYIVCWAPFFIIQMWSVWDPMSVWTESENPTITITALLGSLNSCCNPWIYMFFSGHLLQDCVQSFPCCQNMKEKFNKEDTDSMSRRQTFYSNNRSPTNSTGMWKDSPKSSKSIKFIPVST

Vasopressin V2 receptor = Vasopressin V2 receptor (Homo sapiens, UniProt P30518)
Vasopressin V2 receptor, sequence (P30518 whole entry): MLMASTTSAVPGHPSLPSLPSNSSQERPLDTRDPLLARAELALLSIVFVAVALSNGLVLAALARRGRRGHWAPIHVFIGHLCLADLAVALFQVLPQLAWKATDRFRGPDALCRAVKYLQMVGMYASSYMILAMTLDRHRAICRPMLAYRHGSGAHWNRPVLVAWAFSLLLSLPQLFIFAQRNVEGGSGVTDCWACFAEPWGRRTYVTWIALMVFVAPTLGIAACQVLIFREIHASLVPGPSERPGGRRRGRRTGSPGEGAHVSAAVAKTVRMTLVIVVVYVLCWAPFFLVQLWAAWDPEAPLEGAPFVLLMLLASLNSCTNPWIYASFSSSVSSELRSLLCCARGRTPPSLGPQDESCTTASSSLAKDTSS

[2] = biological target: Neuronal acetylcholine receptor subunit alpha-4 (Homo sapiens, UniProt P43681)
Neuronal acetylcholine receptor subunit alpha-4, sequence (P43681 whole entry): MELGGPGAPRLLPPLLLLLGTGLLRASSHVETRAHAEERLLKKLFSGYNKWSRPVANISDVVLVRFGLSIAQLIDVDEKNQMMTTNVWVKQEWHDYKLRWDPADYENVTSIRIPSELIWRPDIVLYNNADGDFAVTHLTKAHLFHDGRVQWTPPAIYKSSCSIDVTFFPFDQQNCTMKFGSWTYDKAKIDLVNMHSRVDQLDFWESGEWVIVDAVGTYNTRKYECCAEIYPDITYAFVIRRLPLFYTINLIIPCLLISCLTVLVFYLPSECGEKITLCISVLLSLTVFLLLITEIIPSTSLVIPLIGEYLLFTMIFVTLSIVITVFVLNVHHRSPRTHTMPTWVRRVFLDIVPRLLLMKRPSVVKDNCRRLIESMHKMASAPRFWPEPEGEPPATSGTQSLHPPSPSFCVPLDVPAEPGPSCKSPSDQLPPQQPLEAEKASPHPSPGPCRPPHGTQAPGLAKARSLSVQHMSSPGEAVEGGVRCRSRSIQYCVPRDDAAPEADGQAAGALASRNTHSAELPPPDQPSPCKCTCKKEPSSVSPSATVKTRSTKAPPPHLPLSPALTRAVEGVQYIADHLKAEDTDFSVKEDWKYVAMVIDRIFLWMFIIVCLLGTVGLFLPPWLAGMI

[3] = biological target: Growth hormone secretagogue receptor type 1 (Homo sapiens, UniProt Q92847)
Growth hormone secretagogue receptor type 1, sequence (Q92847 whole entry): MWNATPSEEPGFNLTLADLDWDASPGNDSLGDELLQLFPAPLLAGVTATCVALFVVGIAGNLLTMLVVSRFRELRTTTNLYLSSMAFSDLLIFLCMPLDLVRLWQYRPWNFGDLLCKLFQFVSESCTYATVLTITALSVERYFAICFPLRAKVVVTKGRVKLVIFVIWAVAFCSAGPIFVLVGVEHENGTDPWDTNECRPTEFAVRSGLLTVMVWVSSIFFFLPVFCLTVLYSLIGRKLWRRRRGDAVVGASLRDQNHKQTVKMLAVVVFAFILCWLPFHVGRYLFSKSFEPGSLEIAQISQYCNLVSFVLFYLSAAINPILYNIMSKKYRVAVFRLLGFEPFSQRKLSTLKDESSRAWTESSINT

[4] = biological target: Glutamate receptor ionotropic, NMDA 1 (Rattus norvegicus, UniProt P35439)
Melanocortin receptor 4 = Melanocortin receptor 4 (Homo sapiens, UniProt P32245)
Melanocortin receptor 4, sequence (P32245 whole entry): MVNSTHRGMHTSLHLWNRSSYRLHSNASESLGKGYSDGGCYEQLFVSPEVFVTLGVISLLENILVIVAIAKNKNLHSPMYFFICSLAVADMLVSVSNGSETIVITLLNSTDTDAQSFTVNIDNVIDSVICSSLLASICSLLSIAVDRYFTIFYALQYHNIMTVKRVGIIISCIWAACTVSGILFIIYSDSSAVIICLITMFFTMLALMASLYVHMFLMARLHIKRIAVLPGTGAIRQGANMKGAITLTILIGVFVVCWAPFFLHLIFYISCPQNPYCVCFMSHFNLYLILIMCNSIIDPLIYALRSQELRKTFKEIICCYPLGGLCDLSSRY

[5] = biological target: T3, Amine oxidase [flavin-containing] A (Homo sapiens, UniProt P21397); assay type: functional
T3 sequence (P21397 whole entry): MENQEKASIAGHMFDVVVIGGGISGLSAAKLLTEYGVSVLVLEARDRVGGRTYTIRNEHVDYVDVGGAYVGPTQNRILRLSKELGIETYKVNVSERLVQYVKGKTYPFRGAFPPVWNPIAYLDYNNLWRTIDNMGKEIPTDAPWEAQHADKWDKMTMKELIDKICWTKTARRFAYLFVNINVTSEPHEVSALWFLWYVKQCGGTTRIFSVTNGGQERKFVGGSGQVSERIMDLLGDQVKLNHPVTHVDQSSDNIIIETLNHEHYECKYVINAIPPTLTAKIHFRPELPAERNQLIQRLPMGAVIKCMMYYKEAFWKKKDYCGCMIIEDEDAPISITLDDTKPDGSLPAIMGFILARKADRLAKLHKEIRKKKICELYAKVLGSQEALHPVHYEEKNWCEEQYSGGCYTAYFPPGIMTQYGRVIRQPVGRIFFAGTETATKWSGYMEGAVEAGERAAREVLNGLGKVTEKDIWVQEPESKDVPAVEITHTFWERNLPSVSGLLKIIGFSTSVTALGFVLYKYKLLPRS

[6] = biological target: Muscarinic acetylcholine receptor M3 (Homo sapiens, UniProt P20309)
Muscarinic acetylcholine receptor M3, sequence (P20309 whole entry): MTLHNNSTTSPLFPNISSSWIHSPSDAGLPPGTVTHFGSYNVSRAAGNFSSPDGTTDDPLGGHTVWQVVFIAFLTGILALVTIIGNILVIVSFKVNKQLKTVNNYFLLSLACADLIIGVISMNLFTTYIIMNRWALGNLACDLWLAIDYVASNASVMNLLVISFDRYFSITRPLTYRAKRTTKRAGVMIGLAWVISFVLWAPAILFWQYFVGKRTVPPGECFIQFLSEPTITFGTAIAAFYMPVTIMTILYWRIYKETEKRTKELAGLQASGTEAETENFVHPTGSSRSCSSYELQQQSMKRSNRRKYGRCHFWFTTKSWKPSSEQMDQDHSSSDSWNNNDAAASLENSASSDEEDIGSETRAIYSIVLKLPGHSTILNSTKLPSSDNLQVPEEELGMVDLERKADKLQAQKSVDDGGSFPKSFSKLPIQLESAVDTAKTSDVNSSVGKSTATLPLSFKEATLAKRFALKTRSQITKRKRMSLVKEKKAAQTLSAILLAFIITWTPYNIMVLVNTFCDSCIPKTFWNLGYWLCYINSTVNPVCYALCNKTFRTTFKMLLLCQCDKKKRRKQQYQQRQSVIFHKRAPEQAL

[7] = biological target: Sodium-dependent dopamine transporter (Homo sapiens, UniProt Q01959)
Sodium-dependent dopamine transporter, sequence (Q01959 whole entry): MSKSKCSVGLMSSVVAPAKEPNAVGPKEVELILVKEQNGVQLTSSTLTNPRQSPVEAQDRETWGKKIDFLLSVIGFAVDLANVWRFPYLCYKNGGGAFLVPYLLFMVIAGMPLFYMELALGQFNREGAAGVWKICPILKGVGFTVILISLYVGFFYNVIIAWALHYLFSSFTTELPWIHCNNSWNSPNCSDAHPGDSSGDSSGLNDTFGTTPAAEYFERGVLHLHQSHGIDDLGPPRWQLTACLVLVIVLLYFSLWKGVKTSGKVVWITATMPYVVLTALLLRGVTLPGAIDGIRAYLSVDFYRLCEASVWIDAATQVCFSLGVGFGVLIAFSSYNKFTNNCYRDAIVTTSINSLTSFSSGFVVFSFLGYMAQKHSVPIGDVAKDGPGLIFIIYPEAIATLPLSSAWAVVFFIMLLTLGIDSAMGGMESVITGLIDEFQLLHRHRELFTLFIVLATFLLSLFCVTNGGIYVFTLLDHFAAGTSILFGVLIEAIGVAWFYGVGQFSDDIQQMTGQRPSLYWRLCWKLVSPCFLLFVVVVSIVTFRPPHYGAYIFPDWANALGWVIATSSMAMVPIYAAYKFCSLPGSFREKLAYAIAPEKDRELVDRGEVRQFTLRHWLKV

Mu-type opioid receptor = Mu-type opioid receptor (Homo sapiens, UniProt P35372)
Mu-type opioid receptor, sequence (P35372 whole entry): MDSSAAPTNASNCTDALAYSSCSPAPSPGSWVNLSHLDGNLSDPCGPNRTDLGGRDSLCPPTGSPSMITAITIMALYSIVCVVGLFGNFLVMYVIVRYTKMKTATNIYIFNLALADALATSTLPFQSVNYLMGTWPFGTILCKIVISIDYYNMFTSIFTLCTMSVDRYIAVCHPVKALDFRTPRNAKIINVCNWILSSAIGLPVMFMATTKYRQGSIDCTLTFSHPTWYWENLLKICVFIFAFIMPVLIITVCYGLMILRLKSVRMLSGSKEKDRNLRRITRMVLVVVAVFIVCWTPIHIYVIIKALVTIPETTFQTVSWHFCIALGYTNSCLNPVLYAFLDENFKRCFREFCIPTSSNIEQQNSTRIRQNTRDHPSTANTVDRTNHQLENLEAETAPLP

Progesterone receptor = biological target: T4, Progesterone receptor (Homo sapiens, UniProt P06401); assay type: functional
T4 sequence (P06401 whole entry): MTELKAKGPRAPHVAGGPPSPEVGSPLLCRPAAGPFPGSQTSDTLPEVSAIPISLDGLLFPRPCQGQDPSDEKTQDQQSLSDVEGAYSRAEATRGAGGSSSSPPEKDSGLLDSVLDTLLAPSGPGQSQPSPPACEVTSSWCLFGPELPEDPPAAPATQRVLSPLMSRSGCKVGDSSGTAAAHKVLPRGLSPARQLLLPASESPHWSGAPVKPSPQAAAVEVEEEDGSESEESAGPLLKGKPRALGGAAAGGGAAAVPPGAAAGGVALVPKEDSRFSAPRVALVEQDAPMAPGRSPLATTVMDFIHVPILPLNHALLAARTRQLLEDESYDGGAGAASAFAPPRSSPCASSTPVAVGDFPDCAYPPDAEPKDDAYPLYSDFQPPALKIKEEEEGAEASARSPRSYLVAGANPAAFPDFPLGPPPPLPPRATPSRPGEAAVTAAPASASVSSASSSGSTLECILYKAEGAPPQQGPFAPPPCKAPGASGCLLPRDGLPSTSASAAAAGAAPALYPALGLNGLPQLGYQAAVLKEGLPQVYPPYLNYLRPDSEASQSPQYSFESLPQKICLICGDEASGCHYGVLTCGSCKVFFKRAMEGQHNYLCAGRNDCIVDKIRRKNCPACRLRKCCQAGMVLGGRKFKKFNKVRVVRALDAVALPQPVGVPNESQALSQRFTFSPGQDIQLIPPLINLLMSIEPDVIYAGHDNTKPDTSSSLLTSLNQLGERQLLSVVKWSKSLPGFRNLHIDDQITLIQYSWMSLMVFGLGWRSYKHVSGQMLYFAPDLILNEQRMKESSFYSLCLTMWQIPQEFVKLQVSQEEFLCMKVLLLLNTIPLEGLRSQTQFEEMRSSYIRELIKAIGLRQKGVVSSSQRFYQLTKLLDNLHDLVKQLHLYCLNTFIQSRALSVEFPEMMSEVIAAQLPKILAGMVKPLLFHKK
Also: assay procedure not described here.

SMILES | AC50 (Adenosine receptor A3) | AC50 [1] | AC50 (Vasopressin V1a receptor) | AC50 (Vasopressin V2 receptor) | AC50 [2] | AC50 [3] | AC50 [4] | AC50 (Melanocortin receptor 4) | AC50 [5] | AC50 [6] | AC50 [7] | AC50 (Mu-type opioid receptor) | AC50 (Progesterone receptor)
Fc1ccc([C@@H]2CCNC[C@H]2COc2ccc3c(c2)OCO3)cc1 [PAROXETINE] | 22.5 µM | > 30 µM | > 10 µM | > 30 µM | > 10 µM | > 30 µM | > 10 µM | > 30 µM | > 10 µM |  |  |  | 
O=c1c(O)c(-c2ccc(O)c(O)c2)oc2cc(O)cc(O)c12 [QUERCETIN] | 4.2 µM | > 30 µM | > 30 µM |  | > 10 µM | > 30 µM |  | > 30 µM | 5.6 µM | > 30 µM |  |  | 
Cc1ccnc2c1NC(=O)c1cccnc1N2C1CC1 [NEVIRAPINE] | 1.02 µM | > 30 µM | > 10 µM | > 30 µM |  | > 30 µM | > 10 µM | > 30 µM | > 10 µM |  | > 10 µM | > 10 µM | 
CCOC(=O)c1ncn2c1CN(C)C(=O)c1cc(F)ccc1-2 [FLUMAZENIL] | > 30 µM | > 30 µM |  | > 30 µM | > 30 µM | > 30 µM | > 30 µM | > 30 µM | > 30 µM |  | > 30 µM | > 30 µM | > 30 µM
Cc1cc(=O)n(-c2ccccc2)n1C [ANTIPYRINE] | > 30 µM | > 30 µM |  | > 30 µM | > 10 µM | > 30 µM | > 10 µM | > 30 µM | > 10 µM |  | > 30 µM | > 30 µM | 
COc1cc(C(=O)NC2CCCNC2)cc(OC)c1OC (stereo not given) [TROXIPIDE] | > 30 µM | > 30 µM |  | > 30 µM | > 30 µM | > 30 µM | > 30 µM |  | > 30 µM |  | > 30 µM |  | > 30 µM
CC(c1cc2ccccc2s1)N(O)C(N)=O (stereo not given) [ZILEUTON] | > 10 µM | > 10 µM |  | > 10 µM | > 10 µM | > 10 µM | > 10 µM | > 10 µM | > 10 µM |  | > 10 µM | > 30 µM | > 30 µM
CC(C)NC[C@H](O)COc1ccc(CC(N)=O)cc1 [ESATENOLOL] | > 30 µM | > 30 µM | > 10 µM | > 30 µM |  | > 30 µM | > 10 µM | > 30 µM | > 10 µM |  |  |  | 
Cc1cc(C)nc(NS(=O)(=O)c2ccc(N)cc2)n1 [SULFAMETHAZINE] | > 10 µM | > 10 µM |  | > 10 µM | > 10 µM | > 10 µM | > 10 µM | > 10 µM | > 30 µM |  | > 10 µM | > 30 µM | > 10 µM
C[C@]12C/C(=C/O)C(=O)C[C@@H]1CC[C@@H]1[C@@H]2CC[C@@]2(C)[C@H]1CC[C@]2(C)O [OXYMETHOLONE] | 8.2 µM | 15 µM |  | > 30 µM | > 30 µM | > 30 µM | > 30 µM |  | > 30 µM |  | > 30 µM |  | 23 µM
O=C(O)CCNC(=O)c1ccc(/N=N/c2ccc(O)c(C(=O)O)c2)cc1 [BALSALAZIDE] | 27.4 µM | 27.6 µM | 33.7 µM | 36.9 µM | > 30 µM | > 30 µM | > 30 µM | > 30 µM | > 30 µM |  | > 30 µM |  | > 30 µM
COc1ccc2cc(CCC(C)=O)ccc2c1 [NABUMETONE] | > 10 µM | > 10 µM |  | > 10 µM | > 10 µM | > 10 µM | > 10 µM | > 10 µM |  |  | 7.8 µM | > 30 µM | > 10 µM
CCOC(=O)[C@@H](N)Cc1ccc(-c2cc(O[C@H](c3ccc(Cl)cc3-n3ccc(C)n3)C(F)(F)F)nc(N)n2)cc1 [TELOTRISTAT ETHYL] | 3.1 µM | 11 µM | > 30 µM | > 30 µM | > 30 µM | 28 µM | > 30 µM |  | > 30 µM | > 30 µM | 18 µM | > 30 µM | > 30 µM
CCCCCCCC(=O)CC[C@@H]1[C@@H](C/C=C\CCCC(=O)OC(C)C)[C@@H](O)C[C@H]1O [UNOPROSTONE ISOPROPYL] | 5.6 µM |  |  |  |  |  |  |  | > 30 µM |  | 7.2 µM |  | > 30 µM
CCN1CC(CCN2CCOCC2)C(c2ccccc2)(c2ccccc2)C1=O (stereo not given) [DOXAPRAM] | > 30 µM | > 30 µM |  | > 30 µM | > 30 µM | > 30 µM | > 30 µM |  | > 30 µM |  | > 30 µM |  | > 30 µM
CCOC(=O)C(C)(C)Oc1ccc(Cl)cc1 [CLOFIBRATE] | > 30 µM | > 30 µM | > 30 µM | > 30 µM | > 10 µM | > 30 µM | > 10 µM | > 30 µM | > 10 µM |  | > 30 µM | > 30 µM | 
COc1cc(N)c(Cl)cc1C(=O)NC1CCN(CCCOc2ccc(F)cc2)CC1OC (stereo not given) [CISAPRIDE] | > 30 µM | > 30 µM | > 30 µM | > 30 µM | > 10 µM | > 30 µM | > 10 µM | > 30 µM | > 10 µM |  | > 30 µM | > 30 µM | 
O=C(CCCN1CCC(O)(c2ccc(Br)cc2)CC1)c1ccc(F)cc1 [BROMPERIDOL] | > 30 µM | > 30 µM | > 30 µM | > 30 µM | > 30 µM | 6.9 µM | > 30 µM |  | > 30 µM | 12 µM |  |  | > 30 µM
O=C1Nc2ccc(Cl)cc2C(c2ccccc2Cl)=NC1O (stereo not given) [LORAZEPAM] | > 30 µM | > 30 µM | > 10 µM | > 30 µM | > 10 µM | > 30 µM | > 10 µM | > 30 µM | > 10 µM |  | > 10 µM | > 30 µM | 
